Laboratory results reported in patent publication US11638713B2, “Patentiflorin A analogs as antiviral agents” (priority 2019, dated 2023).
Where two headings read alike, the source gives them in different places.

Columns and labels:
H5N1 virus = assay: microbe, parasite or virus in culture; type: cell-based, H5N1 influenza virus; conditions: for inhibition at 1 µg/mL: H5N1, A549, 1000 ng/mL; for inhibition at 5 µg/mL: H5N1, A549, 5000 ng/mL; for inhibition at 0.5 µg/mL: H5N1, A549, 500 ng/mL; for EC50: H5N1, A549, read-out: EC50 against H5N1 virus; for inhibition at 0.05 µg/mL: H5N1, A549, 50 ng/mL; for inhibition at 0.25 µg/mL: H5N1, A549, 250 ng/mL; for inhibition at 0.0125 µg/mL: H5N1, A549, 12.5 ng/mL
A549 cells = assay: cells; conditions: Homo sapiens, A549, read-out: % Inhibition against A549 cells
in vitro = conditions: human
EBOV (Ebola virus) = assay: microbe, parasite or virus in culture; type: cell-based; conditions: Zaire ebolavirus; for inhibition at 1 µg/mL: 1000 ng/mL; for inhibition at 5 µg/mL: 5000 ng/mL; for EC50: A549, read-out: EC50 against EBOV; for inhibition at 0.5 µg/mL: 500 ng/mL; for inhibition at 0.05 µg/mL: 50 ng/mL
HIV = assay: microbe, parasite or virus in culture; type: cell-based; conditions: for EC50: Human immunodeficiency virus 1, A549
[1] = tested on: VSV (vesicular stomatitis virus); assay: microbe, parasite or virus in culture; type: cell-based; conditions: for EC50: A549, read-out: EC50 against VSV; for inhibition at 0.05 µg/mL: A549, 50 ng/mL
[2] = Influenza A virus, read-out: % Inhibition against H5N1 virus
[3] = A549, read-out: % Inhibition against EBOV
[4] = CC50 against the host cell line A549
[5] = read-out: % Inhibition against VSV

COc1cc2c(N=C(c3ccccc3)c3ccccc3)c3c(c(-c4ccc5c(c4)OCO5)c2cc1OC)C(=O)OC3 [Compound 19p]
inhibition at 1 µg/mL (H5N1 virus; [2]): 82.1%
inhibition at 5 µg/mL (H5N1 virus; [2]): 96.5%
inhibition at 1 µg/mL (A549 cells): -13%
inhibition at 5 µg/mL (A549 cells): 17.2%
CC50 (in vitro; CC50 (nM)): > 9200 nM
inhibition at 1 µg/mL (EBOV (Ebola virus); [3]): 58.1%
inhibition at 5 µg/mL (EBOV (Ebola virus); [3]): 89.4%
EC50 (HIV): 249 nM

COc1cc2c(OC3O[C@H](CO)[C@@H](O)[C@H](O)[C@H]3O)c3c(c(-c4ccc5c(c4)OCO5)c2cc1OC)C(=O)OC3 (stereo partly drawn) [Compound 26f, 7-O-β-D-glucopyranosyldiphyllin]
inhibition at 0.1 µg/mL ([1]; A549, 100 ng/mL, read-out: % Inhibition against VSV): 47.2%
inhibition at 0.5 µg/mL ([1]; A549, 500 ng/mL, read-out: % Inhibition against VSV): 70.8%
EC50 [1]: 1040 nM
inhibition at 0.1 µg/mL (H5N1 virus; Influenza A virus, H5N1, A549, 100 ng/mL, read-out: % Inhibition against H5N1 virus): 62.4%
inhibition at 0.5 µg/mL (H5N1 virus; [2]): 87.2%
EC50 (H5N1 virus; Influenza A virus): 371 nM
inhibition at 0.1 µg/mL (A549 cells): -3.84%
inhibition at 0.5 µg/mL (A549 cells): 18.2%
CC50 (in vitro; CC50 (nM)): > 9220 nM
CC50 (in vitro; [4]): 8650 nM
EC50 (EBOV (Ebola virus)): 516 nM
inhibition at 0.1 µg/mL (EBOV (Ebola virus); A549, 100 ng/mL, read-out: % Inhibition against EBOV): 82.7%
inhibition at 0.5 µg/mL (EBOV (Ebola virus); [3]): 89.1%

COc1cc2c(OC3O[C@H](CO)[C@H](O)[C@H](O)[C@H]3O)c3c(c(-c4ccc5c(c4)OCO5)c2cc1OC)C(=O)OC3 (stereo partly drawn) [Compound 26g, 7-O-β-D-galactopyranosyldiphyllin]
EC50 [1]: 210 nM
EC50 (H5N1 virus; Influenza A virus): 63.6 nM
CC50 (in vitro; CC50 (nM)): 7770 nM
CC50 (in vitro; [4]): 4130 nM
EC50 (EBOV (Ebola virus)): 123 nM
EC50 (HIV): 1400 nM

COc1cc2c(OC3O[C@H](C)[C@@H](OC(C)=O)[C@H](O)[C@H]3OC(C)=O)c3c(c(-c4ccc5c(c4)OCO5)c2cc1OC)C(=O)OC3 (stereo partly drawn) [Compound 27be, 2″,4″-Diacetyl-7-O-β-D-patentiflorin A]
CC50 (in vitro; CC50 (nM)): 1670 nM
EC50 (HIV): 1.96 nM

COc1cc2c(OC3O[C@H](C)[C@@H](O)[C@H](OC(C)=O)[C@H]3OC(C)=O)c3c(c(-c4ccc5c(c4)OCO5)c2cc1OC)C(=O)OC3 (stereo partly drawn) [Compound 27bf, 2″,3″-Diacetyl-7-O-β-D-patentiflorin A]
CC50 (in vitro; CC50 (nM)): 308 nM
EC50 (HIV): 1.17 nM

C=CCOC(=O)O[C@H]1C(Oc2c3c(c(-c4ccc5c(c4)OCO5)c4cc(OC)c(OC)cc24)C(=O)OC3)OC[C@@H](O)[C@@H]1OC(C)=O (stereo partly drawn) [Compound 28ab2, 2″-O-allyl oxycarbonyl-3″-acetyl-7-O-β-D-xylosyldiphyllin]
EC50 [1]: 4.98 nM
EC50 (H5N1 virus; Influenza A virus): 0.23 nM
CC50 (in vitro; CC50 (nM)): 386 nM
CC50 (in vitro; [4]): 108 nM
EC50 (EBOV (Ebola virus)): 16.3 nM
EC50 (HIV): 2.3 nM

C=CCOC(=O)O[C@@H]1COC(Oc2c3c(c(-c4ccc5c(c4)OCO5)c4cc(OC)c(OC)cc24)C(=O)OC3)[C@H](OC(=O)OCC=C)[C@H]1OC(C)=O (stereo partly drawn) [Compound 28ab3, 2″,4″-O-diallyl oxycarbonyl-3″-acetyl-7-O-β-D-xylosyldiphyllin]
EC50 [1]: 0.85 nM
EC50 (H5N1 virus; Influenza A virus): 1.16 nM
CC50 (in vitro; CC50 (nM)): 386 nM
CC50 (in vitro; [4]): 6.14 nM
EC50 (EBOV (Ebola virus)): 0.98 nM
EC50 (HIV): 22.9 nM

C=CCOC(=O)O[C@@H]1COC(Oc2c3c(c(-c4ccc5c(c4)OCO5)c4cc(OC)c(OC)cc24)C(=O)OC3)[C@H](OC(=O)OCC=C)[C@H]1O (stereo partly drawn) [Compound 29a, 2″,4″-O-diallyl oxycarbonyl-7-O-β-D-xylosyldiphyllin]
EC50 [1]: 10.6 nM
inhibition at 0.05 µg/mL (H5N1 virus; [2]): 59.4%
inhibition at 0.25 µg/mL (H5N1 virus; [2]): 97.3%
EC50 (H5N1 virus; Influenza A virus): 5.57 nM
CC50 (in vitro; CC50 (nM)): 438 nM
CC50 (in vitro; [4]): 122 nM
EC50 (EBOV (Ebola virus)): 10.6 nM

C=CCOC(=O)O[C@H]1[C@H](O)[C@@H](OC(=O)OCC=C)C(Oc2c3c(c(-c4ccc5c(c4)OCO5)c4cc(OC)c(OC)cc24)C(=O)OC3)O[C@@H]1C (stereo partly drawn) [Compound 29b, 2″,4″-O-diallyl oxycarbonyl-7-O-β-D-patentiflorin A]
CC50 (in vitro; CC50 (nM)): 187 nM
EC50 (HIV): 4.7 nM

C=CCOC(=O)O[C@@H]1COC(Oc2c3c(c(-c4ccc5c(c4)OCO5)c4cc(OC)c(OC)cc24)C(=O)OC3)[C@H](OC(=O)OCC=C)[C@H]1OC(=O)N(C)C (stereo partly drawn) [Compound 30a, 2″,4″-O-diallyl oxycarbonyl-3″-O-dimethylcarbamyl-7-O-β-D-xylosyldiphyllin]
EC50 [1]: 8.6 nM
inhibition at 0.0125 µg/mL (H5N1 virus; [2]): 44.1%
inhibition at 0.05 µg/mL (H5N1 virus; [2]): 95.7%
inhibition at 0.25 µg/mL (H5N1 virus; [2]): 97.6%
EC50 (H5N1 virus; Influenza A virus): 3.88 nM
CC50 (in vitro; CC50 (nM)): 145 nM
CC50 (in vitro; [4]): 35.2 nM
EC50 (EBOV (Ebola virus)): 1.84 nM

COc1cc2c(OC3OC[C@@H](O)[C@H](OC(=O)N(C)C)[C@H]3O)c3c(c(-c4ccc5c(c4)OCO5)c2cc1OC)C(=O)OC3 (stereo partly drawn) [Compound 31a, 3″-O-dimethylcarbamyl-7-O-β-D-xylosyldiphyllin]
inhibition at 1 µg/mL ([1]; A549, 1000 ng/mL, read-out: % Inhibition against VSV): 80.4%
inhibition at 5 µg/mL ([1]; A549, 5000 ng/mL, read-out: % Inhibition against VSV): 99.6%
inhibition at 0.0125 µg/mL (H5N1 virus; [2]): 87.9%
inhibition at 0.05 µg/mL (H5N1 virus; [2]): 94.4%
inhibition at 0.25 µg/mL (H5N1 virus; [2]): 97.6%
inhibition at 1 µg/mL (H5N1 virus; [2]): 94.7%
inhibition at 5 µg/mL (H5N1 virus; [2]): 98.4%
inhibition at 1 µg/mL (A549 cells): 47.5%
inhibition at 5 µg/mL (A549 cells): 99.8%
CC50 (in vitro; CC50 (nM)): 55.8 nM
inhibition at 1 µg/mL (EBOV (Ebola virus); [3]): 81.8%
inhibition at 5 µg/mL (EBOV (Ebola virus); [3]): 95.2%

COc1cc2c(OC3O[C@H](C)[C@@H](O)[C@H](OC(=O)c4cc([N+](=O)[O-])cc([N+](=O)[O-])c4)[C@H]3O)c3c(c(-c4ccc5c(c4)OCO5)c2cc1OC)C(=O)OC3 (stereo partly drawn) [Compound 31b, 3″-O-(3,5-dinitrobenzoyl)-7-O-β-D-patentiflorin A]
CC50 (in vitro; CC50 (nM)): 684 nM
EC50 (HIV): 13.4 nM

CCCC(=O)O[C@H]1[C@H](O)[C@@H](C)OC(Oc2c3c(c(-c4ccc5c(c4)OCO5)c4cc(OC)c(OC)cc24)C(=O)OC3)[C@@H]1O (stereo partly drawn) [Compound 31c, 3″-O-butyryl-7-O-β-D-patentiflorin A]
CC50 (in vitro; CC50 (nM)): 13.4 nM
anti-HIV activity in terms of SI values (HIV): much more improved anti-HIV activity
EC50 (HIV): 0.03 nM

COc1cc2c(OC3O[C@H](C)[C@@H](O)[C@H](OC(=O)c4ccccc4)[C@H]3O)c3c(c(-c4ccc5c(c4)OCO5)c2cc1OC)C(=O)OC3 (stereo partly drawn) [Compound 31d, 3″-O-benzoyl-7-O-β-D-patentiflorin A]
CC50 (in vitro; CC50 (nM)): > 63 nM
EC50 (HIV): 1.36 nM

COc1cc2c(OC3O[C@H](C)[C@@H](O)[C@H](OC(=O)C4CC4)[C@H]3O)c3c(c(-c4ccc5c(c4)OCO5)c2cc1OC)C(=O)OC3 (stereo partly drawn) [Compound 31g, 3″-O-cyclopropanecarbonyl-7-O-4i-D-patentiflorin A]
inhibition at 0.01 µg/mL ([1]; A549, 10 ng/mL, read-out: % Inhibition against VSV): 63.3%
inhibition at 0.05 µg/mL [1, 5]: 95.7%
% Inhibition against H5N1 virus (H5N1 virus; 50 ng/mL): 89.0%
inhibition at 0.01 µg/mL (H5N1 virus; Influenza A virus, H5N1, A549, 10 ng/mL, read-out: % Inhibition against H5N1 virus): 78.9%
inhibition at 0.0125 µg/mL (H5N1 virus; [2]): 97.9%
inhibition at 0.05 µg/mL (H5N1 virus; [2]): 97.9%
inhibition at 0.25 µg/mL (H5N1 virus; [2]): 98.1%
inhibition at 0.01 µg/mL (A549 cells): 11%
inhibition at 0.05 µg/mL (A549 cells): 54.6%
CC50 (in vitro; CC50 (nM)): 26.7 nM
inhibition at 0.01 µg/mL (EBOV (Ebola virus); A549, 10 ng/mL, read-out: % Inhibition against EBOV): 79.1%
inhibition at 0.05 µg/mL (EBOV (Ebola virus); [3]): 90.9%

COc1cc2c(OC3OC[C@@H](O)[C@H](OCc4ccccc4)[C@H]3O)c3c(c(-c4ccc5c(c4)OCO5)c2cc1OC)C(=O)OC3 (stereo partly drawn) [Compound 31l, 3″-O-benzyl-7-O-β-D-xylosyldiphyllin]
inhibition at 0.0125 µg/mL ([1]; A549, 12.5 ng/mL, read-out: % Inhibition against VSV): 88.7%
inhibition at 0.05 µg/mL [1, 5]: 98.4%
EC50 [1]: 0.37 nM
% Inhibition against H5N1 virus (H5N1 virus; 12.5 ng/mL): 95.1%
% Inhibition against H5N1 virus (H5N1 virus; 50 ng/mL): 95.6%
inhibition at 0.0125 µg/mL (H5N1 virus; [2]): 82.8%
inhibition at 0.05 µg/mL (H5N1 virus; [2]): 96%
inhibition at 0.25 µg/mL (H5N1 virus; [2]): 96.8%
EC50 (H5N1 virus; Influenza A virus): 0.013 nM
inhibition at 0.0125 µg/mL (A549 cells): 52%
inhibition at 0.05 µg/mL (A549 cells): 82.1%
CC50 (in vitro; [4]): 4.85 nM
EC50 (EBOV (Ebola virus)): 0.19 nM
inhibition at 0.0125 µg/mL (EBOV (Ebola virus); A549, 12.5 ng/mL, read-out: % Inhibition against EBOV): 86.4%
inhibition at 0.05 µg/mL (EBOV (Ebola virus); [3]): 94.2%

CN(C)CCOc1ccc(/C(=C(/CCCl)c2ccccc2)c2ccccc2)cc1 [Toremifene, toremifene, reference compound]
inhibition at 0.5 µg/mL ([1]; A549, read-out: % Inhibition against VSV): 6.58%
inhibition at 0.5 µg/mL (H5N1 virus; [2]): 28.4%
inhibition at 0.5 µg/mL (A549 cells): -15.1%
EC50 (EBOV (Ebola virus)): 212 nM
inhibition at 0.5 µg/mL (EBOV (Ebola virus); [3]): 93.6%
